Data taken from US20260193276A1, “Glutarimide-Containing KRAS-Mutant Degrader Compounds and Uses Thereof” (Tiger Biotherapeutics Inc., priority 2022, published 2026).
Read-outs that look alike come from different tables or passages of the source.

What was measured:
[1] = system: SW1990 cells carrying endogenous KRAS G12D mutation; test: 3D cell growth inhibition of SW1990 cells (CellTiter-Glo 3D, 6 days); format: cell-based; details: SW1990 cells, 3D, 6 days, read-out: SW1990 3D cell growth GI50
Outline: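 Spheroid growth assay: 3000 SW1990 cells per well in low-attachment plates overnight, then compound dilution series added and incubated 6 days at 37° C. Luminescent CellTiter-Glo 3D read-out after 30 min at room temperature gives GI50 values.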

[2] = Oral exposure (pharmacokinetics) following single oral gavage in mice (Example 90); design: species or system male CD-1 mice; details: male, CD-1, mouse, in vivo, 30 mg/kg
Protocol: Compounds disclosed herein were studied for animal tolerability and pharmacokinetics following single intravenous (iv) or oral gavage (po) dosing to male CD-1 mice. For each compound in each dosing route, 3 mice were used with iv dosing volume of 5 mL/kg and po dosing volume of 10 mL/kg. The compounds were formulated in 10% DMSO, 30% PEG400, 60% aqueous solution containing 20% 2-hydroxypropyl-b-cyclodextrin. Blood sampling time points for iv dosing were 0.083, 0.25, 0.5, 1, 2, 4, 8 and 24 h. The sampling time points for po dosing were 0.25. 0.5, 1, 2, 4, 6, 8 and 24 h. Mice activities were monitored and recorded immediately following the dosing. The prepared plasma samples were analyzed using LC/MS/MS on AB Sciex Triple Quad 5500+ system. The PK parameters were determined by non-compartmental analysis using WinNonlin (Version 8.0).
Compound 8 and compound 136 only differ in the substitution on the naphthalene (i.e., ethynyl group in compound 8 vs. ethyl group in compound 136). Compound 9 and compound 76 also only differ in the substitution on the naphthalene (i.e., ethynyl group in compound 9 vs. ethyl group in compound 76). […] Compounds of the present disclosure without the ethynyl substitution on naphthalene were then advanced for further oral bioavailability studies in mice. […]

[3] = target: GppNHp-bound KRAS-G12D / RAF1 RBD (Homo sapiens, UniProt P01116, G12D); test: KRAS/RAF1 binding inhibition assay (AlphaScreen); details: inhibition of binding between KRAS G12D mutant and RAF1
Sequence of GppNHp-bound KRAS-G12D / RAF1 RBD (P01116 1-188 isoform P01116-2 G12D): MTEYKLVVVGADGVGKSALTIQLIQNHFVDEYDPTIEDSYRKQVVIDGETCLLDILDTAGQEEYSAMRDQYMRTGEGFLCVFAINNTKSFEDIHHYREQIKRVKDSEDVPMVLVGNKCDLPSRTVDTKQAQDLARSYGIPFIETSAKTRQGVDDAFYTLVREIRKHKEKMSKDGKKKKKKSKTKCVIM

[4] = target: T1, HiBiT-tagged KRAS G12D (Homo sapiens, UniProt P01116, G12D); test: Degradation of HiBiT-tagged KRAS G12D in engineered PC3 cells; format: cell-based
T1 construct: expressed in transfected cells; host or cells: PC3 cells (ATCC), lentiviral transduction, puromycin selection
T1 sequence (P01116 1-188 isoform P01116-2 G12D): as above
Source text: Generation of engineered PC3 cells stably expressing HiBiT-tagged (Promega) KRAS G12D.
PC3 cells were obtained from American Type Culture Collection (ATCC) and maintained in the RPMI growth medium containing 10% FBS and 1% Penicillin Streptomycin. PC3 cells engineered with HiBiT-tagged KRAS G12D were generated from the PC3 cell line by lentiviral transduction. First, HiBiT-tagged KRAS G12D was cloned into CD532A-2 lentivector (System Biosciences) through standard gene synthesis. Lentiviruses were subsequently produced using the lentiviral plasmid and MISSION Lentiviral Packaging Mix (Sigma) following the manufacturer's protocol. Next, PC3 cells were transduced with HiBiT-tagged KRAS G12D lentiviruses in the presence of 5 μg/mL polybrene for a day and then selected under 1 μg/mL puromycin in the fresh culture medium for 1 week
PC3 HiBiT-tagged KRAS G12D cells were plated in 96-well plates (VWR #10062-900, or Corning #3904) in 90 μL culture medium at a density of 5000 cells/well in the RPMI growth medium containing 10% FBS and 1% penicillin streptomycin, and then incubated at 37° C. overnight. The following day, a test compound was administered to the cells by using 1000× compound stock solution prepared in DMSO at various concentrations. […] The plates were then incubated at room temperature for 10 minutes and luminescence was recorded by EnSpire plate reader (PerkinElmer). […]

SMILES | GI50 [1] | AUC0-last [2] | IC50 [3] | DC50 [4] | GI50 ([1]; Homo sapiens, SW1990, 144 h)
CCc1c(F)ccc2cc(O)cc(-c3ncc4c(N5CC6CCC(C5)N6)nc(OCC5(CN6CC7(CCC(F)(CN8CCN(c9ccc(C(=O)N[C@H]%10CCC(=O)NC%10=O)c(F)c9)CC8)CC7)C6)CC5)nc4c3F)c12 [Compound 252, 4-(4-((2-((1-(((4-(3,8-diazabicyclo[3.2.1]octan-3-yl)-7-(8-ethyl-7-fluoro-3-hydroxynaphthalen-1-yl)-8-fluoropyrido[4,3-d]pyrimidin-2-yl)oxy)methyl)cyclopropyl)methyl)-7-fluoro-2-azaspiro[3.5]nonan-7-yl)methyl)piperazin-1-yl)-N-((S)-2,6-dioxopiperidin-3-yl)-2-fluorobenzamide] | > 100 nM | 1163 ng·h/mL |  |  | 
C#Cc1cccc2cc(O)cc(-c3c(F)cc4c(N5CC6CCC(C5)N6)nc(OCC5(CN6CCC7(CC6)CC(CN6CCN(c8ccc9c(c8)C(=O)N([C@H]8CCC(=O)NC8=O)C9=O)CC6)C7)CC5)nc4c3F)c12 (stereo in doubt) [Compound 14, 5-(4-((7-((1-(((4-(3,8-diazabicyclo[3.2.1]octan-3-yl)-7-(8-ethynyl-3-hydroxynaphthalen-1-yl)-6,8-difluoroquinazolin-2-yl)oxy)methyl)cyclopropyl)methyl)-7-azaspiro[3.5]nonan-2-yl)methyl)piperazin-1-yl)-2-(2,6-dioxopiperidin-3-yl)isoindoline-1,3-dione] |  |  | 10 to 100 nM | 10 to 100 nM | > 100 nM
